Measured values from PMC3561128, “Preclinical evaluation of carbon-11 and fluorine-18 sulfonamide derivatives for in vivo radiolabeling of erythrocytes” (EJNMMI Research, 2013).
Several values for one entry are separate records, joined by “and”; a condition that tells them apart may be missing. Identical values can stand only once. Like-named read-outs stand apart in the source and are kept apart here.

Experiments:
hCA II = hCA II (Homo sapiens, UniProt P00918); assay: CA-catalyzed CO2 hydration, stopped-flow inhibition assay; assay type: biochemical; details: human (cloned) isozyme; CO2 hydration reaction at 20°C; n = 3
Protocol: (§1) Phenol red (0.2 mM) was used as indicator, working at the absorbance maximum of 557 nm, with 10 mM Hepes as buffer (pH 7.5) and 0.1 M Na2SO4 (for maintaining constant ionic strength) at 25°C following the CA-catalyzed CO2 hydration reaction for a period of 10 to 100 s (the uncatalyzed reaction needs around 60 to 100 s under assay conditions, whereas the catalyzed reactions take around 6 to 10 s). The CO2 concentrations ranged from 1.7 to 17 mM for the determination of kinetic parameters. Each compound was tested in the concentration range between 0.01 nM to 100 μM. The uncatalyzed rates were determined in the same manner and subtracted from the total observed rates. Stock solutions of the compounds (0.1 mM) were prepared in distilled water with 10% to 20% (v/v) DMSO (which is non-inhibitory at these concentrations), and dilutions up to 0.01 nM were made with distilled water. Inhibitor and enzyme solutions were preincubated together for 15 min at room temperature prior to the assay, in order to allow the formation of enzyme-inhibitor complex. The inhibition constants were obtained by nonlinear least square methods using PRISM 3 (GraphPad Software, La Jolla, CA, USA), and they represent the mean from at least three different determinations.

hCA I = hCA I (Homo sapiens, UniProt P00915); assay: as above; assay type: biochemical; details: human (cloned) isozyme; CO2 hydration reaction at 20°C; n = 3
Sequence of hCA I (P00915 whole entry): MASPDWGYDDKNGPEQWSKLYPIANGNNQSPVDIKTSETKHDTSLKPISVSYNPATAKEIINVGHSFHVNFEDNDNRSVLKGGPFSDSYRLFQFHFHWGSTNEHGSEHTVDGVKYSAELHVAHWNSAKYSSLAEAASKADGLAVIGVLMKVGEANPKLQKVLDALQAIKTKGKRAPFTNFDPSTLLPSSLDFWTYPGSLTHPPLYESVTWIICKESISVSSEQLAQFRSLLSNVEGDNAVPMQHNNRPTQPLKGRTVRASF
Protocol: as §1

[1] = Log D (1-octanol/phosphate buffer pH 7.4), shake flask method; assay type: physicochemical
Protocol: Determination of the distribution coefficient (log D1-octanol/phosphate buffer pH 7.4), was carried out by a shake flask method. An aliquot (25 μL) of the tracer agents ^18F]-(3), ^11C]-(4), ^18F]-(5), or ^11C]-(6) (185 to 555 kBq/mL) was added to a polypropylene tube (5 mL; Sarstedt, Nümbrecht, Germany) containing 2 mL of 0.025 M sodium phosphate buffer pH 7.4 and 2 mL of 1-octanol. The tube was vortexed for 2 min at room temperature followed by centrifugation at 3,000 rpm for 10 min (Eppendorf centrifuge 5810, Eppendorf, Westbury, NY, USA). Aliquots of 50 μL of the 1-octanol phase and 500 μL of the phosphate buffer phase were pipetted into separate tared Eppendorf tubes with adequate care to avoid cross contamination between the two phases. The samples were weighed, and radioactivity was quantified using an automated gamma counter. The experiments were carried out sixfold.

RBCs [2] = tested on: RBCs; design: method as in PMID 1647382, PMID 1647383; details: human volunteers, 24 h p.i.; cited from earlier work
RBCs [3] = tested on: RBCs; design: method as in PMID 1647382, PMID 1647383; details: rats, 24 h p.i.; cited from earlier work
[4] = Biodistribution studies in NMRI mice; assay type: in vivo; details: i.v.; for Percentage of ID, blood: blood mass assumed 7% of body mass
Protocol: The biodistribution studies were performed in wild-type NMRI mice with body weights ranging from 30 to 40 g. Mice were intravenously injected with 0.1 MBq of ^18F]-(3) or ^18F]-(5) and 5.5 MBq of ^11C]-(4) or ^11C]-(6) under anesthesia (2% isoflurane in O2 at a flow rate of 1 L/min). The animals were killed by decapitation at 2 min or 60 min p.i. (n = 4/time point for ^18F]-(3), ^11C]-(4), and ^11C]-(6); n = 6 for ^18F]-(5)). Blood was collected, and all major organs were dissected and collected in tarred tubes and were weighed. The radioactivity in each organ was counted using an automated gamma counter, corrected for background radioactivity and expressed as follows: percentage of the injected dose (% ID) or as standardized uptake value (SUV) (SUV = (Counts in tissue per gram of tissue) / (Injected counts per total body mass (g)). For the calculation of total radioactivity in the blood, blood mass was assumed to be 7% of the body mass.

## NS(=O)(=O)c1ccc(OCCF)cc1 [(5)]
hCA II
  Ki: 336 nM
hCA I
  Ki: 30900 nM
[1]
  logD: 0.32

## NS(=O)(=O)c1ccc(I)cc1 [p-iodobenzenesulfonamide]
RBCs [2]
  Activity associated with RBCs: more than 88 % of the ID
RBCs [3]
  Activity associated with RBCs: about 50 % of the injected dose

## NS(=O)(=O)c1ccc(CCNC(=O)c2ccc(OCC[18F])cc2)cc1 [[^18F]-(3), 4-(2-[^18F]fluoroethoxy)benzoyl aminoethylbenzenesulfonamide]
hCA II
  Ki: 8 nM
[4]; 2 min p.i.
  Percentage of ID, brain: 0.2 ± 0.0 % ID
  Percentage of ID, carcass: 18.10 ± 2.32 % ID
  Percentage of ID, heart: 0.8 ± 0.0 % ID
  Percentage of ID, intestines: 5.9 ± 0.8 % ID
  Percentage of ID, kidneys: 10.6 ± 0.8 % ID
  Percentage of ID, liver: 15.8 ± 1.5 % ID
  Percentage of ID, lungs: 2.3 ± 0.5 % ID
  Percentage of ID, spleen + pancreas: 1.3 ± 0.2 % ID
  Percentage of ID, stomach: 0.7 ± 0.1 % ID
  Percentage of ID, urine: 0.2 ± 0.1 % ID
  SUV, blood: 10.1 ± 0.6
  SUV, brain: 0.2 ± 0.0
  SUV, heart: 2.3 ± 1.3
  SUV, kidneys: 5.6 ± 0.6
  SUV, liver: 3.2 ± 0.2
  SUV, lungs: 3.5 ± 1.0
  SUV, spleen: 1.6 ± 0.2
  Percentage of ID, blood: 71.0 ± 4.3 % ID
[4]; 60 min p.i.
  Percentage of ID, brain: 0.2 ± 0.1 % ID
  Percentage of ID, carcass: 31.35 ± 3.67 % ID
  Percentage of ID, heart: 0.2 ± 0.2 % ID
  Percentage of ID, intestines: 18.6 ± 1.0 % ID
  Percentage of ID, kidneys: 2.8 ± 0.1 % ID
  Percentage of ID, liver: 8.3 ± 1.2 % ID
  Percentage of ID, lungs: 0.7 ± 0.3 % ID
  Percentage of ID, spleen + pancreas: 0.9 ± 0.3 % ID
  Percentage of ID, stomach: 1.9 ± 1.3 % ID
  SUV, blood: 4.5 ± 0.3
  SUV, brain: 0.1 ± 0.0
  SUV, heart: 0.5 ± 0.4
  SUV, kidneys: 1.6 ± 0.1
  SUV, liver: 1.7 ± 0.3
  SUV, lungs: 1.1 ± 0.4
  SUV, spleen: 1.1 ± 0.3
  Percentage of ID, blood: 32 % ID and 31.7 ± 2.1 % ID

## NS(=O)(=O)c1ccc(CCNC(=O)c2ccc(OCCF)cc2)cc1 [(3)]
hCA II
  Ki: 8 nM
hCA I
  Ki: 96 nM
[1]
  logD: 1.13

## COc1ccc(S(N)(=O)=O)cc1 [(6)]
hCA II
  Ki: 422 nM
hCA I
  Ki: 24700 nM
[1]
  logD: 0.42

## COc1ccc(C(=O)NCCc2ccc(S(N)(=O)=O)cc2)cc1 [(4)]
hCA II
  Ki: 20 nM
hCA I
  Ki: 390 nM
[1]
  logD: 1.19
